Measurements from a melting point compilation (Tetko et al.).

First: O=C(NO)c1occc1CSc1ccccc1
Second: O=C(O)c1cc2ccc(-c3ccccc3)cc2[nH]1
The melting point of the first is lower: 99 to 101 °C for the first, 250 to 252 °C for the second.

First: O=C(NCc1ccc(F)cc1)C1CCNCC1
Second: Cc1ccc(NC(=O)C2CCNCC2)nc1
The melting point of the first is lower: 139 to 141 °C for the first, 145 to 147 °C for the second.

First: CCC(C)Oc1ccccc1C=CC(=O)O (centres undefined)
Second: CNC(=O)c1cccc(CCl)c1
The melting point of the first is higher: 83 to 85 °C for the first, 61 to 63 °C for the second.

First: COCCCn1c(S)nc2ccccc2c1=O
Second: Fc1ccc(-n2c(S)nc3ccccc32)cc1
The melting point of the first is lower: 180 to 182 °C for the first, 237 to 239 °C for the second.

Compared with Nc1cccc2c1C(=O)N(Cc1ccccc1)C2=O, Nc1ccnn1Cc1cccc2ccccc12 is lower in melting point: 147 to 149 °C for the first, 136 to 140 °C for the second.

First: O=[N+]([O-])c1cc(S(=O)(=O)NCCN2CCOCC2)ccc1Cl
Second: COC(=O)c1cc(S(=O)(=O)N2CCOCC2)ccc1Cl
The melting point of the first is higher: 119 to 121 °C for the first, 74 to 76 °C for the second.

First: CCCCNc1nnc(C)c2ccccc12
Second: Cc1ccccc1-c1nnc(S)n1N
The melting point of the first is lower: 74 to 76 °C for the first, 199 to 201 °C for the second.

First: Cc1ccc(OCc2nc(C=O)cs2)cc1
Second: COc1ccc(OCc2nc(C=O)cs2)cc1
The melting point of the first is lower: 86 to 88 °C for the first, 95 to 97 °C for the second.

First: O=C(O)c1cccc(NC(=O)c2cccnc2)c1
Second: O=C(O)c1cccc(NS(=O)(=O)c2ccccc2)c1
The melting point of the first is higher: 304 to 306 °C for the first, 199 to 201 °C for the second.

First: c1cncc(-c2ncc[nH]2)c1
Second: O=Cc1cn(Cc2cccnc2)nn1
The melting point of the first is higher: 208 to 210 °C for the first, 97 to 99 °C for the second.

First: CCCCn1c(N)cc(=O)[nH]c1=O
Second: Cc1c(N)cnn1CCC(C)C
The melting point of the first is higher: 238 to 240 °C for the first, 46 to 48 °C for the second.

First: CC(C)n1ncc(C(=O)O)c1C1CC1
Second: O=C(O)c1cnoc1C1CC1
The melting point of the first is lower: 99 to 101 °C for the first, 159 to 161 °C for the second.

First: OC(CNCc1ccccc1)C(F)(F)F (centres undefined)
Second: COC(=O)c1ccccc1NC(=O)OCC(F)(F)F
The melting point of the first is lower: 58 to 60 °C for the first, 86 to 88 °C for the second.

Compared with Cc1ccc(S(=O)(=O)NCCCN(C)C)cc1C(=O)O, CCN(CC)S(=O)(=O)c1ccc(O)c(C(=O)O)c1 is lower in melting point: 229 to 231 °C for the first, 129 to 131 °C for the second.

First: Nc1ncc([N+](=O)[O-])cc1C(=O)O
Second: O=C(O)c1ccn(-c2c(Cl)cc([N+](=O)[O-])cc2Cl)n1
The melting point of the first is higher: 239 to 241 °C for the first, 206 to 208 °C for the second.

First: CSc1cc(C(=O)O)oc1C
Second: CCc1ccc(-c2ccc(C(=O)O)o2)cc1
The melting point of the first is lower: 144 to 146 °C for the first, 170 to 172 °C for the second.

First: CC(O)c1cn(-c2ccccc2)nn1 (centres undefined)
Second: O=C(O)c1ncn(-c2ccccc2)n1
The melting point of the first is lower: 75 to 77 °C for the first, 179 to 181 °C for the second.

First: Cc1[nH]c2ccc(F)cc2c1CC(=O)O
Second: O=C(O)c1ccc(F)c(COc2ccc(F)cc2)c1
The melting point of the first is higher: 180 to 182 °C for the first, 149 to 151 °C for the second.

First: Cc1ccc(NS(=O)(=O)c2ccc(Cl)c([N+](=O)[O-])c2)c(C)c1
Second: Cc1ccc([N+](=O)[O-])cc1S(=O)(=O)Nc1ccccc1C(=O)O
The melting point of the first is lower: 99 to 101 °C for the first, 290 to 292 °C for the second.

Compared with O=C(O)c1cc(Cl)cc(Br)c1O, Cc1cc(Br)c(S(=O)(=O)Cl)c(Br)c1 is lower in melting point: 214 to 216 °C for the first, 124 to 126 °C for the second.

Compared with CC(c1ccccc1)c1ccc(O)cc1 (centres undefined), COc1ccc2c(c1)CNC(c1ccccc1)C2 (centres undefined) is higher in melting point: 57 to 59 °C for the first, 90 to 92 °C for the second.

First: COC(=O)Cc1nn[nH]n1
Second: c1csc(-c2nn[nH]n2)c1
The melting point of the first is lower: 154 to 156 °C for the first, 201 to 203 °C for the second.

First: CCCOc1ccc(OCCBr)cc1
Second: COC(=O)Cc1ccc(Oc2ccnc(C#N)c2)cc1
The melting point of the first is lower: 45 to 47 °C for the first, 120 to 122 °C for the second.

Compared with CCOC(=O)/C(C#N)=C\Nc1cc(Cl)ccc1F, Cc1ccc(C(=O)O)cc1S(=O)(=O)Nc1cc(Cl)ccc1F is higher in melting point: 147 to 149 °C for the first, 181 to 183 °C for the second.

Compared with NNC(=O)C(=O)NCc1ccco1, Nc1cccc(C(=O)O)n1 is higher in melting point: 158 to 160 °C for the first, 310 to 312 °C for the second.

First: CCOC(=O)Cc1cccc(C#N)c1
Second: CNC(=O)c1ccc(C#N)cc1
The melting point of the first is lower: 47 to 49 °C for the first, 209 to 211 °C for the second.

Compared with COc1ccccc1OCC(=O)Nc1cccc(N)c1, O=C(CCl)Nc1nc(-c2ccccc2Cl)c(-c2ccccc2Cl)s1 is higher in melting point: 104 to 106 °C for the first, 135 to 137 °C for the second.

First: C1=CNc2cccc(=C3N=c4ccncc4=N3)c2=C1
Second: CNC(c1cccnc1)c1ccc(Cl)cc1Cl (centres undefined)
The melting point of the first is higher: 316 to 318 °C for the first, 111 to 113 °C for the second.

Compared with CCOc1ccc(-c2cc(C(=O)O)c3c(C)noc3n2)cc1, CC(C)c1cnc(-c2ccc([N+](=O)[O-])cc2)o1 is lower in melting point: 222 to 224 °C for the first, 103 to 105 °C for the second.

First: O=CCCc1nc2ccccc2o1
Second: ClCc1nnc(-c2ccccc2Br)o1
The melting point of the first is lower: 62 to 64 °C for the first, 104 to 107 °C for the second.

First: Cc1ccc(S(=O)(=O)N2CCC(C(=O)O)CC2)cc1C
Second: COc1ccc(N2CC(C(=O)O)CC2=O)cc1OC (centres undefined)
The melting point of the first is lower: 190 to 192 °C for the first, 201 to 203 °C for the second.

First: CC(C)(C)C(=O)Nc1nccnc1C(=O)O
Second: Cc1nc(C)c(NC(=O)OC(C)(C)C)s1
The melting point of the first is higher: 96 to 98 °C for the first, 90 to 92 °C for the second.

Compared with O=C(CCl)NCC1(c2ccccc2)CCCC1, C#CCNS(=O)(=O)c1ccccc1 is lower in melting point: 74 to 76 °C for the first, 60 to 62 °C for the second.

First: Oc1cnc2cc(Cl)c(Cl)cc2n1
Second: Cc1cc(N)n(-c2cc(Cl)ncn2)n1
The melting point of the first is higher: 299 to 301 °C for the first, 171 to 173 °C for the second.

First: CS(=O)(=O)c1ccc(F)c(C(=O)O)c1F
Second: COc1cc(C(C)=O)ccc1S(C)(=O)=O
The melting point of the first is higher: 175 to 177 °C for the first, 124 to 126 °C for the second.

Compared with OCC(c1ccc(Br)cc1)N1CCNCC1 (centres undefined), Oc1ccnc2cc(Br)ccc12 is higher in melting point: 109 to 111 °C for the first, 286 to 288 °C for the second.

First: O=C(O)c1sc2cc(C(F)(F)F)ccc2c1Cl
Second: O=C(O)C1CCCN1c1ncc(C(F)(F)F)cc1Cl (centres undefined)
The melting point of the first is higher: 205 to 207 °C for the first, 99 to 101 °C for the second.

First: Cc1nonc1N
Second: Cc1ccnc2[nH]c(CCl)nc12
The melting point of the first is lower: 56 to 58 °C for the first, 274 to 276 °C for the second.

Compared with Fc1cccc(-c2nc(CCl)co2)c1, Cc1ccc2c(c1)c(=O)n(C)c1nnc(CCl)n21 is higher in melting point: 55 to 57 °C for the first, 203 to 205 °C for the second.

First: CC1CCCN1CC(=O)O (centres undefined)
Second: CCCS(=O)(=O)N1CCC(N)CC1
The melting point of the first is higher: 167 to 169 °C for the first, 49 to 51 °C for the second.

First: CC(C)C(=O)NC1(C#N)CCCC1
Second: CC(C1CC1)n1ncc2c(C(=O)O)cc(C3CC3)nc21 (centres undefined)
The melting point of the first is lower: 56 to 58 °C for the first, 148 to 150 °C for the second.

First: ClCc1cc2c(cc1Br)OCCCO2
Second: Nc1cc2c(cc1N)OCCCO2
The melting point of the first is lower: 75 to 77 °C for the first, 122 to 124 °C for the second.

First: CC(C)n1cnc(S(=O)(=O)Cl)c1
Second: O=S(=O)(Cl)c1ncn[nH]1
The melting point of the first is higher: 62 to 64 °C for the first, 58 to 60 °C for the second.

First: O=c1[nH]nnc2sc3c(c12)CCCC3
Second: O=C1NC(=O)C2(CCCc3sccc32)N1 (centres undefined)
The melting point of the first is lower: 185 to 187 °C for the first, 267 to 269 °C for the second.

First: NC(=O)NCCCCCC(=O)O
Second: CCCCc1ccc(C(=O)CCC(=O)O)cc1
The melting point of the first is higher: 175 to 177 °C for the first, 113 to 115 °C for the second.

Compared with O=S(=O)(Cl)c1ccc(OCC2CCCCO2)cc1 (centres undefined), COC(=O)c1ccc(S(=O)(=O)Cl)c([N+](=O)[O-])c1 is higher in melting point: 64 to 66 °C for the first, 100 to 102 °C for the second.

First: CN(C)c1ccc(S(=O)(=O)N(C)C)cc1N
Second: C=CCN(c1ccccc1)S(=O)(=O)c1cccc(C(=O)O)c1
The melting point of the first is higher: 143 to 145 °C for the first, 103 to 105 °C for the second.

First: O=C(O)Cc1ccc(NS(=O)(=O)c2cccc(C(F)(F)F)c2)cc1
Second: Nc1ccnc(OCC(F)(F)F)c1
The melting point of the first is higher: 122 to 124 °C for the first, 39 to 41 °C for the second.

Compared with Cn1cnc([N+](=O)[O-])c1CCl, O=c1[nH]c(CCl)nc2c(Br)cc(Br)cc12 is higher in melting point: 127 to 129 °C for the first, 248 to 252 °C for the second.

Nc1ccc(N2CCN(C(=O)C3CC3)CC2)cn1 gave a melting point of 153 to 155 °C.
